Results taken from patent publication US20040005702A1, “Insulin producing cell-line” (priority 2000, published 2004).
“And” between values parts separate entries of the source, which are not always exact repeats. Equal values may be shown once. “Also recorded” adds a separate entry of the source.

Experiments:
[1] = tested on: human islet-derived 1.1B4 cells; test: Acute static incubation, insulin secretion by radioimmunoassay, 1.1B4 cells; type: cell-based; details: for increase of the effect on raising glucose from 5.6 mmol/l to 11.1 mmol/l: 11.1 vs 5.6 mmol/l glucose; for increase of insulin secretion: at 5.6 mmol/l glucose
Description: (§1) Acute static incubations at 37° C. were performed using monolayers of insulin-secreting cells. […] Approximately 2.5×10^5 cells were then seeded in each well of 24-well multiplates (Iwaki Glass, Japan). […] The cells were incubated at 37° C. for 40 minutes, after which the buffer was removed and replaced with 0.5 ml KRBB test buffer. […] After 60 min incubation at 37° C., a 450 μl aliquot of KRBB test buffer was removed from each well into 2 ml polypropylene tube (Lip Plastics, England) and centrifuged at 900 rpm for 5 minutes at 4° C. The supernatant was then collected from each tube and 200 μl aliquots were then stored at −20° C. for subsequent insulin determination by radioimmunoassay.
(§2) Human insulin standards were prepared over a range of 2-fold serial dilutions from 5.0 ng/ml to 0.009 ng/ml using Human insulin standard (Sigma Chemical, UK). […] This antiserum was specificaly selected for high affinity with human insulin standard.
(§3) After a further 24 hours incubation at 4° C., 1 ml of a 5% (w/v) charcoal coated with 1:10 dextran T-70 in sodium phosphate buffer (40 mmol/1, pH 7.4) was added to each tube. […] Counts bound to antibody (average total counts minus counts bound to charcoal) are inversely proportional to the concentration of insulin in the standard or unknown sample. The unknown concentration was determined by means of the standard curve, constructed from the known […] insulin standard using a spline curve fitting algorithim.

[2] = tested on: human islet-derived 1.1E7 cells; test: Acute static incubation, insulin secretion by radioimmunoassay, 1.1E7 cells; type: cell-based; details: for threshold glucose concentration for stimulation of insulin release in the presence of the agent: IBMX or 2 mmol/l 5-thioglucose included
Description: as §1, §2, §3

[3] = tested on: human islet-derived 1.4E7 cells; test: Acute static incubation, insulin secretion by radioimmunoassay, 1.4E7 cells; type: cell-based
Description: as §1, §2, §3

[4] = tested on: human islet-derived 1.2B4 cells; test: Acute static incubation, insulin secretion by radioimmunoassay, 1.2B4 cells; type: cell-based
Description: as §1, §2, §3

[5] = tested on: 1.1B4, 1.1E7, 1.4E7 and 1.2B4 cells; test: Acute static incubation, insulin secretion, statements pooled over all four cell lines; type: cell-based, human; details: for insulin release at 11.1 mmol/l glucose: novel cells; for insulin release from the novel cell lines: each of the novel cell lines, glucose concentration not stated
Description: as §1, §2, §3

1.1B4 cells [6] = test: Glucose oxidation from D-[U-14C]glucose, 1.1B4 cells; type: cell-based, human; details: 2 mmol/l 5-thioglucose
Description: (§4) A modification of the method developed by Keen et al. (1963) was used to determine oxidative glucose metabolism to CO2. In principle, the method involves incubation of cells in specially designed glass cups suspended inside standard counting vials with an airtight rubber stopper. A disc of filter paper (Whatman No. 1) was placed on the base of the counting vial. For each sample, 2.0×10^5 cells were incubated in the presence of either 1.1, 5.6, 11.1, 16.7 mmol/l glucose and D-[U-^14C] glucose to give a final concentration of […] (40 μl total volume). Effect of 2 mmol/l 5-thioglucose were also tested in 1.1 and 16.7 mmol/l glucose Blanks were set up where the cells were omitted and replaced with KRBB to give a final concentration of either 1.1 or 16.7 mmol/l glucose. Standards consisted of ^14C-labelled glucose (0.5 μCi) added to the filter paper at the base of the counting vial. The glass vials were sealed with the rubber caps and placed at 37° C. for one hour. The reaction was stopped by the addition of 0.2M HCl ([…]) injected through the rubber cap directly into the centre well using a Hamilton syringe. Phenylethylamine (PEA) was added (100 μl) through the sealed lid onto the filter paper at the base of the vial. Care was taken to avoid contamination of the centre well with PEA. […] Vials were capped and ^14C-glucose labelled radioactivity determined by scintillation counter.

1.1E7 cells [7] = test: Glucose oxidation from D-[U-14C]glucose, 1.1E7 cells; type: cell-based, human; details: 2 mmol/l 5-thioglucose
Description: as §4

1.4E7 cells [8] = test: Glucose oxidation from D-[U-14C]glucose, 1.4E7 cells; type: cell-based, human; details: 2 mmol/l 5-thioglucose
Description: as §4

1.2B4 cells [9] = test: Glucose oxidation from D-[U-14C]glucose, 1.2B4 cells; type: cell-based, human; details: 2 mmol/l 5-thioglucose, tested at 1.1 and 16.7 mmol/l glucose
Description: as §4

PANC-1 cells [10] = test: Glucose oxidation from D-[U-14C]glucose, PANC-1 cells; type: cell-based, human; details: 2 mmol/l 5-thioglucose, tested at 1.1 and 16.7 mmol/l glucose
Description: as §4

Hup-T3 cells [11] = test: Glucose oxidation from D-[U-14C]glucose, Hup-T3 cells; type: cell-based, human; details: 2 mmol/l 5-thioglucose, tested at 1.1 and 16.7 mmol/l glucose
Description: as §4

1.1B4 cells [12] = test: Glucose utilisation from [5-3H]glucose, 1.1B4 cells; type: cell-based, human; details: 2 mmol/l 5-thioglucose
Description: (§5) Experiments were performed in specially designed glass cups suspended inside standard counting vials with an airtight stopper. For each sample, 2.0×10^5 cells were incubated in the presence of either 1.1, 5.6, 11.1 or 16.7 mmol/l glucose and D-[5 ^3H] glucose to give a final concentration of 0.25 μCi (40 μl total volume) Effects of 2 mmol/l 5-thioglucose were also tested in 1.1 and 16.7 mmol/l glucose. Blanks were set up where the cells were omitted and replaced with KRBB to give a final concentration of either 1.1 or 16.7 mmol/l glucose. Standards consisted of D-[5^−3H] glucose (0.5 μCi) added to the base of the counting vial. The glass vials were sealed with the rubber caps and placed at 37° C. for one hour. The reaction was stopped by the addition of 0.2M HCl (50 μl) injected through the rubber cap directly into the centre well using a Hamilton syringe. Sterile deionized water was added (500 μl) through the sealed lid into the base of the vial. Vials were then placed at 37° C. for a 15 hour. The rubber caps and centre wells were removed and 5 ml of liquid scintillation fluid (BDH) added to each vial on top of the filter paper. Vials were capped and ^3H-glucose labelled radioactivity determined by scintillation counter.

1.1E7 cells [13] = test: Glucose utilisation from [5-3H]glucose, 1.1E7 cells; type: cell-based, human; details: 2 mmol/l 5-thioglucose, tested at 1.1 and 16.7 mmol/l glucose
Description: as §5

1.4E7 cells [14] = test: Glucose utilisation from [5-3H]glucose, 1.4E7 cells; type: cell-based, human; details: 2 mmol/l 5-thioglucose, tested at 1.1 and 16.7 mmol/l glucose
Description: as §5

1.2B4 cells [15] = test: Glucose utilisation from [5-3H]glucose, 1.2B4 cells; type: cell-based, human; details: 2 mmol/l 5-thioglucose, tested at 1.1 and 16.7 mmol/l glucose
Description: as §5

PANC-1 cells [16] = test: Glucose utilisation from [5-3H]glucose, PANC-1 cells; type: cell-based, human; details: 2 mmol/l 5-thioglucose, this concentration = 16.7 mmol/l glucose
Description: as §5

Hup-T3 cells [17] = test: Glucose utilisation from [5-3H]glucose, Hup-T3 cells; type: cell-based, human; details: 2 mmol/l 5-thioglucose, tested at 1.1 and 16.7 mmol/l glucose
Description: as §5

[18] = 200 μmol/ IBMX, glucose 0 to 16.7 mmol/l
[19] = all four cell lines, 16.7 mmol/l glucose
[20] = 2 mmol/l 5-thioglucose, 0 to 11.1 mmol/l glucose
[21] = tested at 1.1 and 16.7 mmol/l glucose

## isobutylmethylxanthine [IBMX]
[1]; [18]
  increase of secretory response to glucose by IBMX: 20 to 100% and 20 to 60%
  stimulation of secretory response with IBMX: 1.3-2 fold
[1]; absence of glucose
  insulin secretion with IBMX in the absence of glucose: modestly enhanced
[2]; [18]
  increase of secretory response to glucose by IBMX: 20 to 100% and 20 to 60%
  stimulation of secretory response with IBMX: 1.3-2 fold
[2]
  threshold glucose concentration for stimulation of insulin release in the presence of the agent: 5.6 mmol/L
[3]; [18]
  increase of secretory response to glucose by IBMX: 20 to 100% and 20 to 60%
  stimulation of secretory response with IBMX: 1.3-2 fold
[3]; absence of glucose
  insulin secretion with IBMX in the absence of glucose: modestly enhanced
[4]; 200 μmol/ IBMX
  effect of IBMX on insulin released: did not significantly affect; also recorded: insensitive

## CC1=NS(=O)(=O)c2cc(Cl)ccc2N1 [Diazoxide, diazoxide]
[5]; Homo sapiens, all four cell lines, 16.7 mmol/l glucose, diazoxide 400 μmol/l, EGTA in Ca2+-free buffer, read-out: inhibition of insulin release
  inhibition at 400 µM: 20 to 50%
[5]; [19]
  insulin output at 16.7 mmol/l glucose: significantly reduced

## CC(C)CC(=O)C(=O)O [KIC]
[2]
  insulin secretory response at 11.1 mmol/l glucose compared with 5.6 mmol/l: significantly greater
[3]
  insulin secretion at 11.1 mmol/l glucose: induced insulin secretion
[4]
  insulin secretion at 11.1 mmol/l glucose: induced insulin secretion
[5]
  insulin release at 11.1 mmol/l glucose: significant increases in insulin release

## [Cl-].[K+] [KCl]
[5]; all four cell lines, passage 40 vs 17
  secretory responsiveness at passage 40: maintain responsiveness
[5]
  insulin release from the novel cell lines: provoked insulin release

## N=C(N)NCCC[C@H](N)C(=O)O [arginine, L-arginine]
[1]
  increase of the effect on raising glucose from 5.6 mmol/l to 11.1 mmol/l: 17%
[2]
  insulin secretory response at 11.1 mmol/l glucose compared with 5.6 mmol/l: significantly greater
[5]; each cell line, 5.6 mmol/l glucose
  insulin secretion at non-stimulatory glucose: significantly stimulated
[5]
  insulin release at 11.1 mmol/l glucose: significant increases in insulin release

## CC(C)C[C@H](N)C(=O)O [leucine, L-leucine]
[1]
  increase of the effect on raising glucose from 5.6 mmol/l to 11.1 mmol/l: 30%
  increase of insulin secretion: Significant effects
[2]
  insulin secretory response at 11.1 mmol/l glucose compared with 5.6 mmol/l: significantly greater
[3]
  insulin secretion at 11.1 mmol/l glucose: induced insulin secretion
[4]
  insulin secretion at 11.1 mmol/l glucose: induced insulin secretion
[5]
  insulin release at 11.1 mmol/l glucose: significant increases in insulin release

## O=C[C@H](O)[C@@H](O)[C@H](O)[C@H](S)CO [5-thioglucose]
[1]; [20]
  lowering of insulin output by 5-thioglucose: 20-50% and 20 to 50%
[2]; [20]
  lowering of insulin output by 5-thioglucose: 20-50% and 20 to 50%
[2]
  threshold glucose concentration for stimulation of insulin release in the presence of the agent: 5.6 mmol/L
[3]; 2 mmol/l 5-thioglucose
  effect of 5-thioglucose on insulin output and glucose responsiveness: least affected; also recorded: not affected
[4]; 2 mmol/l 5-thioglucose
  glucose-stimulated insulin release in the presence of 5-thioglucose: became apparent
[4]; [20]
  lowering of insulin output by 5-thioglucose: 20-50% and 20 to 50%
[5]; all four cell lines, 2 mmol/l 5-thioglucose
  effect of 5-thioglucose on responsiveness to increasing glucose concentrations: improved; also recorded: caused a shift
1.1B4 cells [6]
  ratio of glucose oxidation:glucose utilisation on addition of 5-thioglucose: significant increase in ratio
1.1B4 cells [6]; [21]
  effect of 5-thioglucose on glucose oxidation: inhibit the oxidation of glucose at both 1.1 mmol/l and 16.7 mmol/l glucose; also recorded: only marginally inhibited
1.1E7 cells [7]
  ratio of glucose oxidation:glucose utilisation on addition of 5-thioglucose: significant increase in ratio
1.4E7 cells [8]
  ratio of glucose oxidation:glucose utilisation on addition of 5-thioglucose: significant increase in ratio
1.4E7 cells [8]; [21]
  effect of 5-thioglucose on glucose oxidation: clearly inhibiting oxidation at both 1.1 and 16.7
1.2B4 cells [9]
  effect of 5-thioglucose on glucose oxidation: inhibited oxidation at 16.7 mmol/l
PANC-1 cells [10]
  effect of 5-thioglucose on glucose oxidation: significant inhibition of oxidation at both 1.1 and 16.7 mmol/l
Hup-T3 cells [11]
  effect of 5-thioglucose on glucose oxidation: able to inhibit oxidation at both 1.1 and 16.7 mmol/l glucose
1.1B4 cells [12]; 1.1 mmol/l glucose
  effect of 5-thioglucose on glucose utilisation: did not affect
1.1B4 cells [12]; 16.7 mmol/l glucose
  effect of 5-thioglucose on glucose utilisation: reduce utilisation
1.1E7 cells [13]
  effect of 5-thioglucose on glucose utilisation: only affected utilisation at 16.7 mmol/l
1.4E7 cells [14]
  effect of 5-thioglucose on glucose utilisation: unaffected
1.2B4 cells [15]
  effect of 5-thioglucose on glucose utilisation: had no affect
PANC-1 cells [16]
  effect of 5-thioglucose on glucose utilisation: inhibit utilisation only at this concentration
Hup-T3 cells [17]
  effect of 5-thioglucose on glucose utilisation: did not inhibit

## O=C(O)CN(CCOCCOCCN(CC(=O)O)CC(=O)O)CC(=O)O [EGTA]
[5]; [19]
  insulin output at 16.7 mmol/l glucose: significantly inhibited

## COc1ccc(Cl)cc1C(=O)NCCc1ccc(S(=O)(=O)NC(=O)NC2CCCCC2)cc1 [glibenclamide]
[5]
  insulin release from the novel cell lines: provoked insulin release

## O=CC(O)CO (stereo not shown) [glyceraldehyde]
[5]
  insulin release from the novel cell lines: significantly stimulate

## C[C@H](N)C(=O)O [alanine, L-alanine]
[1]
  increase of insulin secretion: Significant effects
[2]
  insulin secretory response at 11.1 mmol/l glucose compared with 5.6 mmol/l: significantly greater
[3]
  insulin secretion at 11.1 mmol/l glucose: induced insulin secretion
[4]
  insulin secretion at 11.1 mmol/l glucose: induced insulin secretion
[5]
  insulin release at 11.1 mmol/l glucose: significant increases in insulin release

## COc1ccc(CCN(C)CCCC(C#N)(c2ccc(OC)c(OC)c2)C(C)C)cc1OC (stereo not shown) [verapamil]
[5]; [19]
  insulin output at 16.7 mmol/l glucose: similarly reduced

## CCCCNC(=O)NS(=O)(=O)c1ccc(C)cc1 [tolbutamide]
[1]
  increase of the effect on raising glucose from 5.6 mmol/l to 11.1 mmol/l: 20%
[5]
  insulin release from the novel cell lines: provoked insulin release
